Results on three molecules are retold here after US6479519B1, “Substituted anilides” (Aventis Pharma Limited, priority 1997, dated 2002).

On to `COc1cc(CC(=O)Nc2ccc([C@@H](CC(=O)O)NC(=O)CCCC(=O)O)cc2)ccc1NC(=O)Nc1ccccc1C` [Example 5(h), (R)-3-(4-carboxybutanoyl-amino)-3-(4-{3-methoxy-4-[3-(2-methylphenyl)ureido]phenylacetylamino}-phenyl)-propanoic acid], for which the melting point – broadly, the temperature, or range, at which the solid turns liquid – was in the range of 220 to 222 °C. `COc1cc(N(C(C)=O)c2ccc([C@@H](CC(=O)O)NC(=O)CN)cc2)ccc1NC(=O)Nc1ccccc1C` [Example 10, (R)-3-[(2-amino-acetyl)amino]-3-(4-{3-methoxy-4-[3-(2-methylphenyl)ureido]phenyl-acetylamino}phenyl)propanoic acid]: the melting point was 105 to 108 °C (dec.).

As to `COc1cc(CC(=O)Nc2ccc([C@@H](CC(=O)O)NC(=O)c3ccc[n+]([O-])c3)cc2)ccc1NC(=O)Nc1ccccc1C` [Example 11, (R)-3-[(1-oxido-pyridine-3-carbonyl)amino]-3-(4-{3-methoxy-4-[3-(2-methylphenyl)ureido]-phenylacetylamino}phenyl)-propanoic acid], the melting point is 190 °C (dec.).
